Experimental data: article PMC8958504 (Journal of Medicinal Chemistry, 2022)
Several values for one entry are separate records, joined by “and”; a condition that tells them apart may be missing. Identical values can stand only once. Entries after “also recorded” stand apart in the source; their conditions may differ.

Key:
[1] = target: T1, QR2 (Mesocricetus auratus, UniProt A0ABM2YAB8); assay: biochemical
T1 sequence (A0ABM2YAB8 1-231): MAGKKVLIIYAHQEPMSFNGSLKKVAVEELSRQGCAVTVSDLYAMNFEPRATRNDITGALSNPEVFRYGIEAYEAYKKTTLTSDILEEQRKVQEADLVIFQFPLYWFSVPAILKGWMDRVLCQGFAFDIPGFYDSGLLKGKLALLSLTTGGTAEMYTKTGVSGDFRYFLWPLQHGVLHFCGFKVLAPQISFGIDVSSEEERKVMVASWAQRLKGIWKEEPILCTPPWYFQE
Method: The QR2 experiments were performed in membrane homogenates of hamster brains (https://www.eurofins.fr, catalog ref. 0088). […] First, radioligand displacement was measured at a fixed compound concentration (10 μM) in each receptor.

[2] = in vitro; format: in vitro ADME
[3] = tested on: adult mice NSCs; assay: Neurogenic studies in SGZ-derived neurospheres; format: cell-based, mouse; conditions: 10 μM
Method: Adult mice NSCs were isolated from SGZ of the dentate gyrus of the hippocampus and grown as free-floating neurospheres (NS).[72],[78] The neurogenic potential of each compound was determined using fluorescence confocal microscopy by quantifying the expression of two well-known neuronal markers: human β-III-tubulin (TuJ-1 clone) and microtubule-associated protein 2 (MAP-2). TuJ-1 is expressed in immature neurons, whereas the expression of MAP-2 indicates a consolidated mature neuronal stage.[79] Given that neurogenesis involves not only the proliferation of NSC but also the migration of newly generated cells, the greatest migration distance promoted by each compound was also measured (Figure 8).
Adult male C57BL/6 mice (3 months old) were used in order to determine neurogenesis activity. […] DAPI staining was used as a nuclear marker. Fluorescent representative images were acquired with a Nikon fluorescence microscope 90i coupled to a digital camera Qi. The microscope configuration was adjusted to produce the optimum signal-to-noise ratio. […] Quantification was undertaken using the image analySIS software (Soft Imaging System Corp., Münster, Germany) and normalized to total nuclei (DAPI-stained). The intensity of immunostaining of neurites from TuJ1-labeled cells and the number of MAP-2-positive cells were estimated from nine neurospheres per condition over three independent experiments. The outgrowth of the neurosphere cells was examined under a phase-contrast microscope and the farthest distance of cell migration was calculated from the edge of the sphere. At least 10 plated neurospheres per treatment were analyzed.

[4] = Thermodynamic solubility; format: physicochemical; conditions: phosphate buffer pH 7.4
[5] = In vitro glutathione conjugation (LC-IT-MS); format: in vitro ADME; conditions: 100 μM, GSH 1 mM, with or without GST, 37 °C, 1 h
Method: As the control, nonenzymatic reaction (mixture lacking GST) was also performed.
The reaction was maintained at 37 °C for 1 h. As a control, the nonenzymatic reaction mixture (mixture lacking GST) was incubated for 1 h at 37 °C. The reactions were stopped by adding 100 μL of 20% trifluoroacetic acid. The samples were prepared for analysis by adding 400 μL of a 50:50 mixture of MeOH/CH3CN. The reaction mixtures were analyzed using an API QSTAR pulsar I LC–MS/MS system (Applied Biosystems, Madrid, Spain) equipped with an electrospray ionization source and connected to a LC system 1100 series (Agilent Technologies, Madrid, Spain). […] The LC-IT-MS was operated in the positive ion mode.

[6] = tested on: mouse hippocampal slices; conditions: 1 μM, OA 1 μM, 6 h
Method: Once the treatment was ended, the cell viability was measured by the MTT method, cell death with the fluorescent probe PI (1 μg/mL), and ROS production with the fluorescent probe H2DCFDA (10 μL/mL).
(§1) Fluorescence from whole slices was measured as the mean intensity with an inverted Nikon eclipse T2000-U microscope (Nikon Instruments). […] The results were normalized to the basal condition, which was considered as 100%. Image analysis was performed using Fiji software.

[7] = tested on: iNOS; assay: Western blotting of iNOS in hippocampal slices exposed to OA; format: cell-based, mouse; conditions: hippocampal slices treated with OA
Text: As iNOS can be produced through the NF-κB (nuclear factor kappa-light-chain-enhancer of activated B cells) pathway, we analyzed the levels of p65, one of the components that form the NF-κB transcription factor family.[82] […] We also measured HO-1, an inducible enzyme transcribed by NRF2, known for its anti-inflammatory, antioxidant, and neuroprotective effects. […] NRF2 and NF-κB signaling pathways cooperate to maintain the physiological homeostasis of cellular redox status and to regulate the cellular response to stress and inflammation.[19],[83] […] This last mechanism could be related to our resveratrol-based MTDL 4e.
After acute treatment, the hippocampal slices were lysed in a cold AKT lysis buffer (137 mM NaCl, 20 mM NaF, 10% glycerol, 20 mM Tris–HCl, 1% Nonidet P-40, 1 μg/mL leupeptin, 1 mM phenylmethylsulfonylfluoride, 1 mM sodium pyrophosphate, and 1 mM Na3VO4, pH 7.5). The total protein in each sample was quantified using the Pierce BCA protein kit (Thermo Fisher). 20 μg of protein was resolved by sodium dodecyl sulfate polyacrylamide gel electrophoresis (SDS-PAGE) and transferred to Immobilon-P PVDF membranes (Millipore Corp.). […] The membranes were washed, incubated with ECL WB Kit (GE Healthcare, Amersham), and exposed using a ChemiDoc MP system (Bio-Rad Laboratories) for the visualization of the specific bands, which were then analyzed with Fiji software.

[8] = tested on: mice hippocampal organotypic cultures; assay: Organotypic hippocampal culture, chronic OA treatment; format: cell-based, mouse; conditions: 1 μM, OA 10 nM, 72 h
Method: 6–10 days old mice (C57BL/6j) were sacrificed, and hippocampi were carefully removed in Hank’s balanced salt solution (HBBS). 300 μm slices were cut and placed in 0.4 μm culture inserts (Merck-Millipore, Germany) and stabilized for 24 h at 37 °C in neurobasal media (Gibco, Invitrogen) supplemented with 10% FBS (Gibco, Invitrogen). […] Finally, cell death and ROS production were determined with the fluorescent probes PI (1 μg/mL) and H2DCFDA (10 μg/mL), respectively.
as §1

Structure (SMILES): C#CCn1nc(/C=C/c2ccc(OC)cc2)oc1=O [4e, 5-[(E)-2-(4-Methoxyphenyl)ethenyl]-3-(prop-2-yn-1-yl)-1,3,4-oxadiazol-2(3H)-one]
- IC50 [1]: 570 ± 40 nM
- Papp at 240 min, 100 μg mL^–1 ([2]; PAMPA, pH 7.4, class from PAMPA-BBB Pe, read-out: CNS-permeability prediction): > 4 ×10⁻⁶ cm/s
- PAMPA-BBB (Pe, 10^–6 cm s^–1) ([2]; porcine brain lipid, PBS/EtOH (70:30), 240 min, 25 °C): 8.0 ± 0.5 10^–6 cm s^–1
- TuJ-1 and MAP-2 marked cells [3]: clearly increased; also recorded: highest expression of young cells (TuJ-1) and mature neurons (MAP-2)
- cell migration distance [3]: extended; also recorded: greatest distance of cell migration
- solubility thermodynamic [4]: 76.1 µM and 19.5 µg/mL
- GSH adduct formation [5]: no peaks corresponding to GS-4e adducts were found
- ROS production (H2DCFDA) [6]: reduced ROS production to basal levels
- cell viability (MTT) [6]: significantly increased the cell viability to almost basal levels
- iNOS level [7]: reduced to basal levels
- ROS production (H2DCFDA) [8]: significantly decrease ROS production to basal levels; also recorded: significantly reduced ROS production
- cell death (PI mean intensity) [8]: reduced hippocampal death with a statistical trend (p = 0.07); also recorded: reduce cell death; although the differences were not statistically significant
